The values below come from ChEMBL document CHEMBL5104111, “Boron-Containing heterocycles as promising pharmacological agents” (Bioorg Med Chem, 2022).

The test system of data set [1] is Mycolicibacterium smegmatis. In words: Antibacterial activity against Mycobacterium smegmatis ATCC 700084 assessed as bacterial growth inhibition incubated for 72 hrs by broth microdilution method. In kind it is functional. (Broth dilution looks for growth in wells or tubes with falling amounts of substance.)
The subject of data set [2] is Candida albicans. In words: Antifungal activity against Candida albicans assessed as fungal growth inhibition at 25 ug incubated for 48 hrs by disk diffusion method. In kind it is functional. The settings on record: read-out: IZ.
In data set [3] the test system is Escherichia coli. The data set can be described thus: Antibacterial activity against Escherichia coli ATCC 25922 assessed as bacterial growth inhibition incubated for 72 hrs by broth microdilution method. In kind it is functional.
Data set [4] has as its system Verticillium dahliae. In words: Antifungal activity against Verticillium dahliae assessed as fungal growth inhibition at 50 ug incubated for 96 hrs by disk diffusion method. To be noted: read-out: IZ. In kind it is functional. For orientation: A growth-free zone around the sample is the usual read-out of agar diffusion tests.
In data set [5] the test system is Aspergillus niger. The data set can be described thus: Antifungal activity against Aspergillus niger assessed as fungal growth inhibition at 25 ug incubated for 48 hrs by disk diffusion method. In kind it is functional. The settings on record: read-out: IZ.
The subject of data set [6] is Aspergillus niger. In words: Antifungal activity against Aspergillus niger assessed as fungal growth inhibition at 50 ug incubated for 96 hrs by disk diffusion method. The settings on record: read-out: IZ. In kind it is functional.
Data set [7] deals with Salmonella typhimurium. In words: Antibacterial activity against Salmonella typhimurium Delta-119 assessed as bacterial growth inhibition incubated for 16 hrs by broth dilution method. In kind it is functional, Salmonella enterica subsp. enterica serovar Typhimurium. To be noted: Salmonella enterica.
Data set [8] deals with Klebsiella pneumoniae. In words: Antibacterial activity against Klebsiella pneumoniae Delta-217 assessed as bacterial growth inhibition incubated for 16 hrs by broth dilution method. In kind it is functional.
Data set [9] deals with Escherichia coli. In words: Antibacterial activity against Escherichia coli assessed as bacterial growth inhibition. In kind it is functional.
In data set [10] the test system is Proteus mirabilis. In words: Antibacterial activity against Proteus mirabilis Delta-89 assessed as bacterial growth inhibition incubated for 16 hrs by broth dilution method. In kind it is functional.
The test system of data set [11] is Streptococcus mutans. In words: Antibacterial activity against Streptococcus mutans assessed as bacterial growth inhibition. In kind it is functional.
Data set [12] relates to Aspergillus niger. In words: Antifungal activity against Aspergillus niger ATCC 20408 assessed as fungal growth inhibition by plate colony counting method. In kind it is functional.
Data set [13] deals with Saccharomyces cerevisiae. The data set can be described thus: Antifungal activity against Saccharomyces cerevisiae assessed as fungal growth inhibition at 100 ug. In kind it is functional. The settings on record: read-out: IZ.
Data set [14] has as its system Mycobacterium tuberculosis. In words: Antibacterial activity against Mycobacterium tuberculosis assessed as bacterial growth inhibition. In kind it is functional.
Data set [15] has as its system Mycolicibacterium smegmatis. The data set can be described thus: Antibacterial activity against Mycobacterium smegmatis assessed as bacterial growth inhibition. In kind it is functional.
Data set [16] concerns A549. In words: Cytotoxicity against human A549 cells assessed as cell growth inhibition. In kind it is functional.
The subject of data set [17] is Candida albicans. The data set can be described thus: Antifungal activity against Candida albicans ATCC 14053 assessed as fungal growth inhibition by broth microdilution method. In kind it is functional.
Data set [18] deals with Vanrija humicola. In words: Antifungal activity against Cryptococcus humicola ATCC 9949 assessed as fungal growth inhibition by broth microdilution method. In kind it is functional.
The test system of data set [19] is Aspergillus niger. The data set can be described thus: Antifungal activity against Aspergillus niger ATCC 16404 assessed as fungal growth inhibition by broth microdilution method. In kind it is functional.
Data set [20] has as its system Fusarium oxysporum. The data set can be described thus: Antifungal activity against Fusarium oxysporum VKM F-140 assessed as fungal growth inhibition by broth microdilution method. In kind it is functional.
Data set [21] is described as follows: Cmax in rat at 25 mg/kg, po. In kind it is ADME, organism-based. Details: dose 25 mg/kg, route po. The settings on record: in vivo.
Data set [22] is described as follows: AUC (0 to 24 hrs) in rat at 25 mg/kg, po. In kind it is ADME, organism-based. Details: time < 24 hr, dose 25 mg/kg, route po. The settings on record: in vivo.
Data set [23] relates to Mycobacterium tuberculosis. In words: Antibacterial activity against Mycobacterium tuberculosis H37Rv ATCC 25618 assessed as bacterial growth inhibition incubated for 5 days by fluorescence based assay. In kind it is functional, organism-based. To be noted: H37Rv ATCC 25618, 120 h.
In data set [24] the test system is HepG2. The data set can be described thus: Cytotoxicity against human HepG2 cells assessed as cell growth inhibition incubated for 72 hrs by Cell Titer Glo assay. In kind it is functional, cell-based. To be noted: HepG2, 72 h. Background: ATP-based viability assays read luminescence as a measure of living cells.
Data set [25] relates to Prototheca zopfii. In words: Antimicrobial activity against Prototheca zopfii assessed as microbial growth inhibition by CLSI protocol based assay. In kind it is functional.
For data set [26], the system named is Pseudomonas aeruginosa. The data set can be described thus: Antibacterial activity against Pseudomonas aeruginosa assessed as bacterial growth inhibition by broth microdilution method. In kind it is functional.
The subject of data set [27] is Staphylococcus aureus. In words: Antibacterial activity against Staphylococcus aureus ATCC 43300 assessed as bacterial growth inhibition incubated for 1 hr by plate colony counting method. In kind it is functional.
Data set [28] in a line: Dose normalized AUC (0 to 24 hrs) in C57BL/6 mouse at 30 mg/kg, po qd via gavage measured for 0.25 to 24 hrs post dose by LC-MS/MS analysis. In kind it is ADME, organism-based. The settings on record: in vivo, time 0.25-24 hrs.
Data set [29] in a line: Dose normalized AUC (0 to infinity) in C57BL/6 mouse at 5.5 mg/kg, iv qd measured for 0.083 to 24 hrs post dose by LC-MS/MS analysis. In kind it is ADME, organism-based. The settings on record: in vivo, time 0.083-24 hrs.
Data set [30] in a line: Half life in C57BL/6 mouse at 30 mg/kg, po qd via gavage measured for 0.25 to 24 hrs post dose by LC-MS/MS analysis. In kind it is ADME, organism-based. The settings on record: in vivo, time 0.25-24 hrs.
Data set [31] is described as follows: AUC (0 to 24 hrs) in C57BL/6 mouse at 30 mg/kg, po qd via gavage measured for 0.25 to 24 hrs post dose by LC-MS/MS analysis. The settings on record: in vivo. Details: dose 30 mg/kg, time 0.25-24 hrs, route po. In kind it is ADME, organism-based.
Data set [32] concerns Mycobacterium tuberculosis. In words: Antibacterial activity against Mycobacterium tuberculosis H37Rv infected in C57BL/6J mouse model of acute TB infection administered once daily for 8 days and measured after 24 hrs. In kind it is functional. To be noted: 216 h, time 9 day.

Converted amounts (≈) assume the structure as drawn.

The MIC is the lowest concentration that inhibits growth of the organism. Turning to `NC(=S)N1N=Cc2ccccc2B1O`, the minimum inhibitory concentration (MIC) amounted to 4 µg/mL (≈ 19.5 µM) in data set [1] and 16 µg/mL (≈ 78 µM) in [3]. In addition, the zone of inhibition at 25 µg/disc is 6 mm in data set [2] and 7 mm in [5]. The zone of inhibition at 50 µg/disc in data set [4] was 3.7 mm; in data set [6] it was 3.1 mm. For the molecule `COc1ccc2c(c1)C=NN(C(N)=S)B2O`, the zone of inhibition at 50 µg/disc turned out to be 6.4 mm in [4] and 2.3 mm in data set [6]. With `Cc1ccc(S(=O)(=O)N2N=Cc3cc(C)oc3B2O)cc1`, the MIC in [7] is 3.12 µg/mL (≈ 10.3 µM); in data set [8] it was 1.56 µg/mL (≈ 5.13 µM). For `CC1=NN2B(OB3c4ccccc4C(C)=NN3C2=O)c2ccccc21`, the minimum inhibitory concentration (MIC) in data set [9] stood at 32 µg/mL (≈ 97.6 µM). Take `Cc1ccc2c(c1)C=NN(S(=O)(=O)c1ccc(N)cc1Cl)B2O`: the MIC in data set [10] came out at 0.78 µg/mL (≈ 2.23 µM); in data set [8], 0.39 µg/mL (≈ 1.12 µM). Regarding `CC1NB(c2ccccc2)OC1c1ccccc1` (centres undefined), in [11], the MIC amounted to 1300 µM (≈ 308 µg/mL).

For `Brc1cccc(B2NC(c3ccccc3)=NO2)c1`, the minimal inhibitory concentration (MIC) in data set [12] was found to be 0.08 µM (≈ 0.0241 µg/mL).

As for `CCNC(=S)N1N=Cc2ccccc2B1O`, the zone of inhibition at 100 µg/disc in [13] stood at 4.3 mm. The IC90 is the concentration needed for an effect of 90%. Turning to `N#Cc1ccccc1-c1cccc2c1B(O)OC2`, the IC90 in data set [14] is 30 µM.

As for `O=C(NCCOCCOCCNC(=O)c1ccc2c(c1)B(O)OC2)c1ccc2c(c1)COB2O`, the minimum inhibitory concentration (MIC) in [15] came to 0.78 µM. In addition, the MIC99 in [16] was more than 10 µM. With `O=C(NCCCOCCOCCOCCCNC(=O)c1ccc2c(c1)B(O)OC2)c1ccc2c(c1)COB2O`, the MIC in [15] stood at 1.56 µM. Further, in data set [16], the MIC99 was more than 5 µM. In the case of `O=[N+]([O-])c1cccc(B2NC(c3ccccc3)=NO2)c1`, the minimum inhibitory concentration (MIC) in [12] came to 0.09 µM (≈ 0.024 µg/mL).

Turning to `C[C@@H]1[C@H](O)[C@@H](C)/C=C/C=C/C=C/C=C/C=C/C=C/C=C/[C@H](O[C@@H]2O[C@H](C)[C@@H](O)[C@H](NS(=O)(=O)c3ccc4c(c3)OB(O)C4)[C@@H]2O)C[C@@H]2O[C@](O)(C[C@@H](O)C[C@@H](O)[C@H](O)CC[C@@H](O)C[C@@H](O)CC(=O)O[C@H]1C)C[C@H](O)[C@H]2C(=O)O`, the MIC in data set [17], in data set [18], in data set [19] and in [20] was 0.25 µg/mL (≈ 0.223 µM) throughout. By Cmax is commonly meant the highest concentration seen after dosing. By AUC(0-t) is commonly meant exposure summed from dosing to a finite time, without extrapolation to infinity. A low value points to less exposure. As for `CC1(C)OB(O)c2cc(NC(=O)c3ccc(F)cc3C(F)(F)F)ccc21` [ACOZIBOROLE], the highest concentration (Cmax) in [21] is more than 10000 ng/mL. The AUC(0-t) at 24 h in [22] is more than 100000 ng·h/mL. With `C=CCNC(=S)N1N=Cc2ccccc2B1O`, the zone of inhibition at 25 µg/disc came out at 9 mm in data set [2] and 7 mm in data set [5]. In general, IC50 refers to the concentration needed to halve the response being measured. As to `CS(=O)(=O)N1N=Cc2ccc(Oc3ccc(C(F)(F)F)cc3/C=N/O)cc2B1O`, the IC50 in [23] was 0.11 µM; in data set [24] it was more than 100 µM.

In the case of `COc1ccc([N+]2=C(c3ccccc3)C=C(C(Cl)(Cl)Cl)O[B-]2(F)F)cc1`, the MIC in data set [25] is 0.3 µg/mL (≈ 0.717 µM).

For the molecule `Cc1ccc2c(c1-c1ccccc1C(N)=O)B(O)OC2`, in data set [14], the IC90 was 1.8 µM. As for `Clc1ccc(-c2noc3c2COB(c2cccc(Br)c2)OC3)cc1`, the minimal inhibitory concentration (MIC) in data set [26] turned out to be 25 µg/mL (≈ 61.8 µM). For the molecule `O=C(c1ccncc1)N1N=Cc2ccccc2B1OB1c2ccccc2C=NN1C(=O)c1ccncc1`, the minimum inhibitory concentration (MIC) in data set [15] stood at 32 µg/mL; in data set [9] it was 4 µg/mL (≈ 8.26 µM). Consider `Cc1cccc(N2B(c3cccc([N+](=O)[O-])c3)ON=C2c2ccccc2)c1`, for which, in [27], the minimal inhibitory concentration (MIC) stood at 0.06 µM (≈ 0.0214 µg/mL).

What is called half-life is the time needed for the level to fall by half in the phase considered. Read a high half-life as slow loss. The term AUC denotes concentration integrated over time. Read a low AUC as low exposure. As for `NC[C@H]1OB(O)c2c(OCCO)ccc(Cl)c21` [GANFEBOROLE], the figures for the AUC/dose in data set [28] and in data set [29] were 2.94 µg·h/mL and 2.03 µg·h/mL, respectively. In [30], this molecule showed a half-life of 3.6 h. This molecule registered an exposure (AUC) in data set [31] of 88200 ng·h/mL. Besides, in data set [32], the ED99 was found to be 0.4 mg/kg.

In the case of `O=[N+]([O-])c1ccc([N+]2=C(c3ccccc3)C=C(C(Cl)(Cl)Cl)O[B-]2(F)F)cc1`, the minimal inhibitory concentration (MIC) in data set [25] was found to be 0.3 µg/mL (≈ 0.692 µM).
